Assay results reported in patent publication US20230085307A1, “PYRIDAZINONE COMPOUND AND HERBICIDE” (NISSAN CHEMICAL CORPORATION, priority 2019, published 2023).

Legend:
lambsquarters [1] = experiment: Test Example 4: herbicidal effect by soil treatment (Table 19, symbol O); format: in vivo, lambsquarters (Chenopodium album); details: amount of applied herbicide 320 g/ha
Procedure, shortened: (§1)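 Soil-surface application: an emulsion agent diluted with water to the predetermined dose is sprayed uniformly over seeds lying under roughly 1.5 cm of sterilized diluvial soil. Boxes stay in a greenhouse at 25° C. to 30° C. Three weeks later, each species is graded on previously defined criteria.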

green foxtail [2] = experiment: Test Example 5: herbicidal effect by foliage application, plastic box (Table 20, symbol G); format: in vivo, green foxtail (Setaria viridis); details: 320 g/ha
Procedure, shortened: (§2)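 Sow seeds spot-wise in sterilized diluvial soil; cover with ~1.5 cm soil. Grow 14 days in greenhouse, 25° C. to 30° C. Spray foliage with emulsion diluted to predetermined amount. Rate effect after 3 weeks.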

barnyard grass [3] = experiment: Test Example 3: herbicidal effect by foliage application, Wagner pot (Table 18, symbol H); format: in vivo, barnyard grass (Echinochloa crus-galli); details: 320 g/ha
Procedure, shortened: (§3)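 Plants were sown in alluvial soil held under 0.1–0.5 cm standing water and grown 14 days in a greenhouse at 25–30 °C. An emulsifiable formulation, water-diluted to the set dose, was then sprayed onto the foliage, and effects were scored three weeks later using previously defined criteria.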

rice flat sedge = experiment: Test Example 3: herbicidal effect by foliage application, Wagner pot (Table 18, symbol E); format: in vivo, rice flat sedge (Cyperus iria); details: 320 g/ha
Procedure, shortened: as §3

blackgrass [4] = experiment: Test Example 5: herbicidal effect by foliage application, plastic box (Table 20, symbol J); format: in vivo, blackgrass (Alopecurus myosuroides); details: 320 g/ha
Procedure, shortened: as §2

windgrass [5] = experiment: Test Example 5: herbicidal effect by foliage application, plastic box (Table 20, symbol L); format: in vivo, windgrass (Apera spica-venti); details: 320 g/ha
Procedure, shortened: as §2

barnyard grass [6] = experiment: Test Example 4: herbicidal effect by soil treatment (Table 19, symbol H); format: in vivo, barnyard grass (Echinochloa crus-galli); details: amount of applied herbicide 320 g/ha
Procedure, shortened: as §1

lambsquarters [7] = experiment: Test Example 5: herbicidal effect by foliage application, plastic box (Table 20, symbol O); format: in vivo, lambsquarters (Chenopodium album); details: 320 g/ha
Procedure, shortened: as §2

redroot pigweed [8] = experiment: Test Example 4: herbicidal effect by soil treatment (Table 19, symbol N); format: in vivo, redroot pigweed (Amaranthus retroflexus); details: amount of applied herbicide 320 g/ha
Procedure, shortened: as §1

wild oat [9] = experiment: Test Example 4: herbicidal effect by soil treatment (Table 19, symbol I); format: in vivo, wild oat (Avena fatua); details: amount of applied herbicide 320 g/ha
Procedure, shortened: as §1

Italian ryegrass [10] = experiment: Test Example 5: herbicidal effect by foliage application, plastic box (Table 20, symbol K); format: in vivo, Italian ryegrass (Lolium multiflorum); details: 320 g/ha
Procedure, shortened: as §2

velvetleaf [11] = experiment: Test Example 5: herbicidal effect by foliage application, plastic box (Table 20, symbol M); format: in vivo, velvetleaf (Abutilon theophrasti); details: 320 g/ha
Procedure, shortened: as §2

chickweed [12] = experiment: Test Example 4: herbicidal effect by soil treatment (Table 19, symbol P); format: in vivo, common chickweed (Stellaria media); details: amount of applied herbicide 320 g/ha
Procedure, shortened: as §1

persian speedwell [13] = experiment: Test Example 4: herbicidal effect by soil treatment (Table 19, symbol R); format: in vivo, Persian speedwell (Veronica persica); details: amount of applied herbicide 320 g/ha
Procedure, shortened: as §1

chickweed [14] = experiment: Test Example 5: herbicidal effect by foliage application, plastic box (Table 20, symbol P); format: in vivo, common chickweed (Stellaria media); details: foliage application, 320 g/ha, three weeks after application
Procedure, shortened: as §2

wild oat [15] = experiment: Test Example 5: herbicidal effect by foliage application, plastic box (Table 20, symbol I); format: in vivo, wild oat (Avena fatua); details: 320 g/ha
Procedure, shortened: as §2

barnyard grass [16] = experiment: Test Example 5: herbicidal effect by foliage application, plastic box (Table 20, symbol H); format: in vivo, barnyard grass (Echinochloa crus-galli); details: 320 g/ha
Procedure, shortened: as §2

Chinese sprangletop = experiment: Test Example 3: herbicidal effect by foliage application, Wagner pot (Table 18, symbol D); format: in vivo, chinese sprangletop (Leptochloa chinensis); details: 320 g/ha
Procedure, shortened: as §3

Italian ryegrass [17] = experiment: Test Example 4: herbicidal effect by soil treatment (Table 19, symbol K); format: in vivo, Italian ryegrass (Lolium multiflorum); details: amount of applied herbicide 320 g/ha
Procedure, shortened: as §1

velvetleaf [18] = experiment: Test Example 4: herbicidal effect by soil treatment (Table 19, symbol M); format: in vivo, velvetleaf (Abutilon theophrasti); details: amount of applied herbicide 320 g/ha
Procedure, shortened: as §1

blackgrass [19] = experiment: Test Example 4: herbicidal effect by soil treatment (Table 19, symbol J); format: in vivo, blackgrass (Alopecurus myosuroides); details: amount of applied herbicide 320 g/ha
Procedure, shortened: as §1

southern crabgrass [20] = experiment: Test Example 5: herbicidal effect by foliage application, plastic box (Table 20, symbol F); format: in vivo, southern crabgrass (Digitaria ciliaris); details: 320 g/ha
Procedure, shortened: as §2

southern crabgrass [21] = experiment: Test Example 4: herbicidal effect by soil treatment (Table 19, symbol F); format: in vivo, southern crabgrass (Digitaria ciliaris); details: amount of applied herbicide 320 g/ha
Procedure, shortened: as §1

persian speedwell [22] = experiment: Test Example 5: herbicidal effect by foliage application, plastic box (Table 20, symbol R); format: in vivo, Persian speedwell (Veronica persica); details: 320 g/ha
Procedure, shortened: as §2

redroot pigweed [23] = experiment: Test Example 5: herbicidal effect by foliage application, plastic box (Table 20, symbol N); format: in vivo, redroot pigweed (Amaranthus retroflexus); details: 320 g/ha
Procedure, shortened: as §2

windgrass [24] = experiment: Test Example 4: herbicidal effect by soil treatment (Table 19, symbol L); format: in vivo, windgrass (Apera spica-venti); details: amount of applied herbicide 320 g/ha
Procedure, shortened: as §1

green foxtail [25] = experiment: Test Example 4: herbicidal effect by soil treatment (Table 19, symbol G); format: in vivo, green foxtail (Setaria viridis); details: amount of applied herbicide 320 g/ha
Procedure, shortened: as §1

[26] = foliage application, three weeks after application
[27] = foliage application after 14-day growth, evaluated three weeks after application

Compound: CSc1ccccc1-c1sc2ccccc2c1-c1c(O)c(C)nn(C)c1=O [1-034]
- herbicidal effect rating, O: lambsquarters (lambsquarters [1]): 0 (Herbicidal rate of 5% or less (almost no effect))
- herbicidal effect grade, G: green foxtail (green foxtail [2]; [26]): 0 (Herbicidal rate of 5% or less (almost no effect))
- herbicidal effect on H (barnyard grass), rating 0-5 (barnyard grass [3]): 1 (Herbicidal rate of 5% or more and less than 20%)
- herbicidal effect on E (rice flat sedge), rating 0-5 (rice flat sedge): 3 (Herbicidal rate of 40% or more and less than 70%)
- herbicidal effect grade, J: blackgrass (blackgrass [4]; [26]): 0 (Herbicidal rate of 5% or less (almost no effect))
- herbicidal effect grade, L: windgrass (windgrass [5]; [26]): 0 (Herbicidal rate of 5% or less (almost no effect))
- herbicidal effect rating, H: barnyard grass (barnyard grass [6]): 0 (Herbicidal rate of 5% or less (almost no effect))
- herbicidal effect grade, O: lambsquarters (lambsquarters [7]; [26]): 0 (Herbicidal rate of 5% or less (almost no effect))
- herbicidal effect rating, N: redroot pigweed (redroot pigweed [8]): 0 (Herbicidal rate of 5% or less (almost no effect))
- herbicidal effect rating, I: wild oat (wild oat [9]): 0 (Herbicidal rate of 5% or less (almost no effect))
- herbicidal effect grade, K: Italian ryegrass (Italian ryegrass [10]; [26]): 0 (Herbicidal rate of 5% or less (almost no effect))
- herbicidal effect grade, M: velvetleaf (velvetleaf [11]; [26]): 0 (Herbicidal rate of 5% or less (almost no effect))
- herbicidal effect rating, P: chickweed (chickweed [12]): 3 (Herbicidal rate of 40% or more and less than 70%)
- herbicidal effect rating, R: persian speedwell (persian speedwell [13]): 0 (Herbicidal rate of 5% or less (almost no effect))
- herbicidal effect grade, P: chickweed (chickweed [14]): 4 (Herbicidal rate of 70% or more and less than 90%)
- herbicidal effect grade, I: wild oat (wild oat [15]; [26]): 2 (Herbicidal rate of 20% or more and less than 40%)
- herbicidal effect grade, H: barnyard grass (barnyard grass [16]; [26]): 0 (Herbicidal rate of 5% or less (almost no effect))
- herbicidal effect on D (Chinese sprangletop), rating 0-5 (Chinese sprangletop): 0 (Herbicidal rate of 5% or less (almost no effect))
- herbicidal effect rating, K: Italian ryegrass (Italian ryegrass [17]): 0 (Herbicidal rate of 5% or less (almost no effect))
- herbicidal effect rating, M: velvetleaf (velvetleaf [18]): 0 (Herbicidal rate of 5% or less (almost no effect))
- herbicidal effect rating, J: blackgrass (blackgrass [19]): 0 (Herbicidal rate of 5% or less (almost no effect))
- herbicidal effect grade, F: southern crabgrass (southern crabgrass [20]; [26]): 0 (Herbicidal rate of 5% or less (almost no effect))
- herbicidal effect rating, F: southern crabgrass (southern crabgrass [21]): 0 (Herbicidal rate of 5% or less (almost no effect))
- herbicidal effect grade, R: persian speedwell (persian speedwell [22]; [26]): 1 (Herbicidal rate of 5% or more and less than 20%)
- herbicidal effect grade, N: redroot pigweed (redroot pigweed [23]; [26]): 0 (Herbicidal rate of 5% or less (almost no effect))
- herbicidal effect rating, L: windgrass (windgrass [24]): 0 (Herbicidal rate of 5% or less (almost no effect))

Compound: CCOc1cccc(-c2sc3c(Cl)cccc3c2-c2c(O)c(C)nn(C)c2=O)c1 [4-066]
- Herbicidal effect by soil treatment, O: lambsquarters (lambsquarters [1]): 0 (Herbicidal rate of 5% or less (almost no effect))
- herbicidal effect on G: green foxtail (evaluation grade 0-5) (green foxtail [2]; [27]): 1 (Herbicidal rate of 5% or more and less than 20%)
- herbicidal effect on rice flat sedge (E) (rice flat sedge): 3 (Herbicidal rate of 40% or more and less than 70%)
- herbicidal effect on J: blackgrass (evaluation grade 0-5) (blackgrass [4]; [27]): 0 (Herbicidal rate of 5% or less (almost no effect))
- herbicidal effect on L: windgrass (evaluation grade 0-5) (windgrass [5]; [27]): 0 (Herbicidal rate of 5% or less (almost no effect))
- Herbicidal effect by soil treatment, H: barnyard grass (barnyard grass [6]): 0 (Herbicidal rate of 5% or less (almost no effect))
- herbicidal effect on O: lambsquarters (evaluation grade 0-5) (lambsquarters [7]; [27]): 3 (Herbicidal rate of 40% or more and less than 70%)
- Herbicidal effect by soil treatment, N: redroot pigweed (redroot pigweed [8]): 0 (Herbicidal rate of 5% or less (almost no effect))
- Herbicidal effect by soil treatment, I: wild oat (wild oat [9]): 0 (Herbicidal rate of 5% or less (almost no effect))
- herbicidal effect on K: Italian ryegrass (evaluation grade 0-5) (Italian ryegrass [10]; [27]): 3 (Herbicidal rate of 40% or more and less than 70%)
- herbicidal effect on M: velvetleaf (evaluation grade 0-5) (velvetleaf [11]; [27]): 4 (Herbicidal rate of 70% or more and less than 90%)
- Herbicidal effect by soil treatment, P: chickweed (chickweed [12]): 0 (Herbicidal rate of 5% or less (almost no effect))
- Herbicidal effect by soil treatment, R: persian speedwell (persian speedwell [13]): 4 (Herbicidal rate of 70% or more and less than 90%)
- herbicidal effect on I: wild oat (evaluation grade 0-5) (wild oat [15]; [27]): 0 (Herbicidal rate of 5% or less (almost no effect))
- herbicidal effect on H: barnyard grass (evaluation grade 0-5) (barnyard grass [16]; [27]): 3 (Herbicidal rate of 40% or more and less than 70%)
- herbicidal effect on Chinese sprangletop (D) (Chinese sprangletop): 0 (Herbicidal rate of 5% or less (almost no effect))
- Herbicidal effect by soil treatment, K: Italian ryegrass (Italian ryegrass [17]): 0 (Herbicidal rate of 5% or less (almost no effect))
- Herbicidal effect by soil treatment, M: velvetleaf (velvetleaf [18]): 0 (Herbicidal rate of 5% or less (almost no effect))
- Herbicidal effect by soil treatment, J: blackgrass (blackgrass [19]): 0 (Herbicidal rate of 5% or less (almost no effect))
- herbicidal effect on F: southern crabgrass (evaluation grade 0-5) (southern crabgrass [20]; [27]): 0 (Herbicidal rate of 5% or less (almost no effect))
- Herbicidal effect by soil treatment, F: southern crabgrass (southern crabgrass [21]): 0 (Herbicidal rate of 5% or less (almost no effect))
- herbicidal effect on R: persian speedwell (evaluation grade 0-5) (persian speedwell [22]; [27]): 3 (Herbicidal rate of 40% or more and less than 70%)
- Herbicidal effect by soil treatment, G: green foxtail (green foxtail [25]): 0 (Herbicidal rate of 5% or less (almost no effect))
- herbicidal effect on N: redroot pigweed (evaluation grade 0-5) (redroot pigweed [23]; [27]): 4 (Herbicidal rate of 70% or more and less than 90%)
- Herbicidal effect by soil treatment, L: windgrass (windgrass [24]): 0 (Herbicidal rate of 5% or less (almost no effect))
